Tests used:
Assay type in all cases: cell-based, mouse
phospho-eEF2 = test: Phospho-eEF2 in hippocampal slices (immunohistochemistry, Western blot); details: WT hippocampal slices, DHPG 50 μM, 5 min
Description: Transfected HEK293T cells or cultured neurons were treated with various drugs and then harvested in IP buffer supplemented with 1% Triton X-100 buffer and Complete™ EDTA-Free protease inhibitors. Soluble fractions were diluted with 4× SDS sample buffer.
Samples were separated electrophoretically using NuPAGE 4-12% Bis-Tris gels (Invitrogen) and transferred to an Immobilon-P PVDF membrane (Millipore). The membrane was blocked with TBST (50 mM Tris, pH 7.5, with 150 mM NaCl, and 0.1% Tween-20) containing 5% non-fat milk for one hour at room temperature, followed by incubation with primary antibody in TBST buffer overnight at 4° C. After three washes with TBST buffer, membranes were incubated with HRP-conjugated anti-rabbit, or anti-mouse antibody in TBST for another hour. After three washes with TBST buffer, the membrane was treated with SuperSignal ECL substrate (Pierce) according to the manufacturer's protocol.
Immunohistochemistry of phospho-eEF2 in WT and eEF2K mice was performed as described (Ramirez-Amaya et al., J. Neurosci. 25, 1761-1768 (2005)) with slight modifications. […] The signals were visualized using the cyanine 3 (CY3) TSA fluorescence system (PerkinElmer Life Sciences), and the nuclei were stained with DAPI (Molecular Probes). No staining was detected in the absence of the primary or secondary antibodies. No phospho-eEF2 signal was detected in eEF2K KO sections.

[1] = test system: hippocampal Schaffer collateral-CA1 synapses; test: Field recording of fEPSP (mGluR-LTD) in acute hippocampal slices; details: for DHPG-LTD (fEPSP slope): t=75 min
Description: For recording, slices were placed in a submersion recording chamber and perfused with 30° C. ACSF at a rate of 2 ml/min.
fEPSPs were recorded with extracellular recording electrodes (1.0 MΩ) filled with ACSF and placed in the stratum radiatum of area CA1. Synaptic responses were evoked by a 200-μsec current pulse to Schaffer collateral axons with a concentric bipolar tungsten stimulating electrode. Stable baseline responses were collected every 30 sec by using a stimulation intensity (10-30 μA) yielding 50-60% of the maximal fEPSP slope response.
mGluR-LTD was induced by a mGluR1/5 agonist, (R,S)-3,5-DHPG (Tocris), or by electrical stimulations. […] NMDAR dependent-LTD was induced by using 900 single pulses delivered at 1 Hz.

[2] = test system: GluR1-containing AMPA receptors in primary hippocampal neurons; test: AMPA receptor trafficking (surface and internalized GluR1 labeling)
Description: (§1) Labeling of surface or internalized pool of AMPA receptor was performed as described with minor modifications (Shepherd, et al., Neuron, 52, 475-484 (2006)). Briefly, surface GluR1-containing AMPA receptors were then labeled by adding 2.5 μg of GluR1-N JH1816 pAb to the neuronal growth media and were subsequently incubated at 37° C. for 15 or 60 minutes after 5 min DHPG application. To visualize surface and internalized GluR1, Alexa 555 secondary was added in excess live at 10° C. Neurons were fixed, permeabilized and subsequently exposed to Alexa 488 secondary to stain internalized receptors (background in the non-permeabilized control was negligible).
as §1, with “DIV 14-21 mouse primary hippocampal cultures were incubated in neuronal growth media containing 50 μMDHPG for 5 minutes and then washed” for “Labeling of surface or internalized pool of AMPA receptor was performed as described”, “new growth media. Surface” for “minor modifications (Shepherd, et al., Neuron, 52, 475-484 (2006)). Briefly, surface”
Quantification of surface GluR1 puncta was carried out using Image J software. Images were acquired as multi-channel TIFF files with a dynamic range of 4096 gray levels (12-bit binary; MultiTrack acquisition for confocal) using metamorph software on a Zeiss LSM 510 confocal microscope. To measure punctate structures neurons were thresholded by gray value at a level close to 50% of the dynamic range. Background noise from these images was negligible. All puncta were treated as individual objects and the characteristics of each, such as area and average fluorescence, were logged measured. The Data reflected in FIGS. 1B-C was an example of one representative experiment. The total intensity of GluR1 levels were normalized to control, untreated neurons at 60 min. Significance was determined by a paired Student's t-test.

SMILES: NC(C(=O)O)c1cc(O)cc(O)c1 (racemic) [DHPG, (R,S)-3,5-DHPG]
- phospho-eEF2 level (phospho-eEF2): dramatically increased
- fEPSP slope after DHPG ([1]; Arc KO slices, DHPG 50 μM 5 min, t=70 min): 92.1±3.7 % of baseline
- fEPSP slope after DHPG ([1]; Arc KO slices, DHPG 100 μM 5 min, t=90 min): 88.5±7.4 % of baseline
- DHPG-LTD (fEPSP slope) ([1]; Arc/Fmr1 DKO slices, DHPG 50 μM 5 min): 85.9±4.1 % of baseline
- DHPG-LTD (fEPSP slope) ([1]; FVB WT slices, DHPG 50 μM 5 min): 73.0±6.6 % of baseline
- DHPG-LTD (fEPSP slope) ([1]; Fmr1 KO slices, DHPG 50 μM 5 min): 68.2±2.6 % of baseline
- fEPSP slope after DHPG ([1]; WT slices (littermates of Arc KO), DHPG 50 μM 5 min, t=70 min): 72.8±2.0 % of baseline
- fEPSP slope after DHPG ([1]; WT slices (littermates of eEF2K KO), DHPG 50 μM 5 min, t=90 min): 64.7±5.2 % of baseline
- fEPSP slope after DHPG ([1]; WT slices, DHPG 100 μM 5 min, t=90 min): 64.4±2.6 % of baseline
- fEPSP slope after DHPG ([1]; eEF2K KO slices, DHPG 50 μM 5 min, t=90 min): 108.7±3.6 % of baseline
- internalized GluR1 ([2]; Arc KO neurons, after DHPG): did not exhibit changes
- surface GluR1 ([2]; Arc KO neurons, after DHPG): did not exhibit any changes
- internalized GluR1 ([2]; WT cultures, 15 min after 5 min DHPG): increase of internalized GluR1
- surface GluR1 ([2]; WT hippocampal cultures, 15 min and 60 min after 5 min DHPG): loss of surface GluR1
